According to patent US8710264B2, “Antitumoral compounds” (priority 2007, dated 2014):
≈ marks a conversion by molar mass, not a printed value. Like-named read-outs stand apart in the source and are kept apart here.

What was measured:
Saccharomyces cerevisiae = conditions: fungus Saccharomyces cerevisiae; cited from earlier work
[1] = system: L929 mouse fibroblast cell culture; conditions: toxicity toward L929 mouse fibroblast cell culture; cited from earlier work
HT29 = assay: Cytotoxicity assay, SRB colorimetric assay; type: cell-based; conditions: Homo sapiens; for GI50: concentration that produces 50% growth inhibition; for IC (TGI): total growth inhibition (cytostatic effect)
Excerpt: (§1) The aim of this assay is to evaluate the in vitro cytostatic (ability to delay or arrest tumor cell growth) or cytotoxic (ability to kill tumor cells) activity of the samples being tested.
(§2) Evaluation of Cytotoxic Activity Using the SBR Colorimetric Assay
(§3) A colorimetric type of assay, using sulforhodamine B (SRB) reaction has been adapted for a quantitative measurement of cell growth and viability (following the technique described by Skehan P et al. J. Natl. Cancer Inst. 1990, 82, 1107-1112).
(§4) This form of assay employs SBS-standard 96-well cell culture microplates (Faircloth et al. Methods in Cell Science, 1988, 11(4), 201-205; Mosmann et al, Journal of Immunological. Methods, 1983, 65(1-2), 55-63). All the cell lines used in this study, derived from different types of human cancer, were obtained from the American Type Culture Collection (ATCC).
(§5) Cells were maintained in Dulbecco's Modified Eagle Medium (DMEM) supplemented with 10% Fetal Bovine Serum (FBS), 2 mM L-glutamine, 100 U/mL penicillin and 100 U/mL streptomycin at 37° C., 5% CO2 and 98% humidity. For the experiments, cells were harvested from subconfluent cultures using trypsinization and resuspended in fresh medium before counting and plating.
(§6) Cells were seeded in 96 well microtiter plates at 5×10^3 cells per well in aliquots of 150 μL, and allowed to attach to the plate surface for 18 hours in drug free medium. One control (untreated) plate of each cell line was fixed (as described below) and used for time zero reference value. Afterwards, test samples were added to the cultures in ten serial dilutions, in aliquots of 50 μL, ranging from 10 to 0.00262 μg/mL. After 48 hours exposure, the antitumor effect was estimated by the SRB method: Briefly, cells were washed twice with PBS, fixed for 15 min in 1% glutaraldehyde solution, rinsed twice in PBS, and stained in 0.4% SRB solution for 30 min at room temperature. Cells were then rinsed several times with 1% acetic acid solution and air-dried. SRB was then extracted in 10 mM trizma base solution and the absorbance measured in an automated spectrophotometric plate reader at 490 nm. Cell survival was expressed as percentage of control cell growth. The final effect of the sample being tested was estimated by applying the NCI algorithm (Boyd M R and Paull K D. Drug Dev. Res. 1995, 34, 91-104).
(§7) Using the mean±SD of triplicate cultures, a dose-response curve was automatically generated using nonlinear regression analysis. Three reference parameters were calculated (NCI algorithm) by automatic interpolation: GI50=concentration that produces 50% growth inhibition; TGI=total growth inhibition (cytostatic effect) and LC50=concentration that produces 50% net cell killing (cytotoxic effect).

MDA-MB-231 = assay: Cytotoxicity assay, SRB colorimetric assay; type: cell-based; conditions: Homo sapiens; for GI50: concentration that produces 50% growth inhibition; for IC (TGI): total growth inhibition (cytostatic effect)
Excerpt: as §1, §2, §3, §4, §5, §6, §7

A549 = assay: Cytotoxicity assay, SRB colorimetric assay; type: cell-based; conditions: Homo sapiens; for GI50: concentration that produces 50% growth inhibition; for LC50 (50% net cell killing): read-out: LC50; for IC (TGI): total growth inhibition (cytostatic effect)
Excerpt: as §1, §2, §3, §4, §5, §6, §7

breast cancer carcinoma = conditions: cited from earlier work
[2] = HT-29, HT29, 48 hours exposure, concentration that produces 50% net cell killing (cytotoxic effect), read-out: LC50 (the source's name)
[3] = MDA-MB-231, 48 hours exposure, concentration that produces 50% net cell killing (cytotoxic effect), read-out: LC50 (the source's name)
[4] = A549, 48 hours exposure, concentration that produces 50% net cell killing (cytotoxic effect)
[5] = MDA-MB-231, 48 h, read-out: LC50

Row | SMILES | MIC (Saccharomyces cerevisiae) [µg/mL] | IC50 [1] [µg/mL] | GI50 (HT29; HT-29, HT29, 48 hours exposure) [nM] | CC50 (HT29; [2]) [nM] | IC (TGI) (HT29; HT-29, HT29, 48 hours exposure) [nM] | GI50 (MDA-MB-231; MDA-MB-231, 48 hours exposure) [nM] | CC50 (MDA-MB-231; [3]) [nM] | IC (TGI) (MDA-MB-231; MDA-MB-231, 48 hours exposure) [nM] | GI50 (A549; A549, 48 hours exposure) [nM] | LC50 (50% net cell killing) (A549; [4]) [nM] | IC (TGI) (A549; A549, 48 hours exposure) [nM] | CC50 (HT29; HT-29, 48 h, read-out: LC50) [nM] | CC50 (MDA-MB-231; [5]) [nM] | LC50 (50% net cell killing) (A549; A549, 48 h) [nM] | IC50 (breast cancer carcinoma) [nM]
1 | COC(=O)CNC(=O)CCC/C=C\NC(=O)/C=C(C)/C=C/[C@H](C)[C@H](OC)[C@H](C)[C@H](/C=C/c1ccccc1)OC [crocacin D] | 0.0014 (≈ 0.00259 µM) | 0.06 (≈ 0.111 µM) | – | – | – | – | – | – | – | – | – | – | – | – | –
2 | COc1cc(/C=C(C)/C=C\C=C/C(=O)N[C@H](C(=O)N/C=C\C[C@H](C/C=C(\C)Cl)O[Si](C)(C)C(C)(C)C)C(C)(C)C)ccc1O[Si](C)(C)C(C)(C)C [Compound 30] | – | – | 777 | 869 | 816 | 764 | 1260 | 974 | 671 | 908 | 764 | – | – | – | –
3 | C=CCCOC(=O)[C@@H](NC(=O)\C=C/C=C\C(C)=C\c1ccc(O)c(OC)c1)C(C)(C)C [Compound 36] | – | – | 1960 | > 23400 | 7950 | 1150 | 19200 | 2570 | 3270 | > 23400 | > 23400 | – | – | – | –
4 | C/C(Cl)=C\C[C@@H](C/C=C\NC(=O)[C@@H](NC(=O)\C=C/C=C\C(C)=C\[C@H](C)c1ccccc1)C(C)(C)C)OC(N)=O [Compound 39] | – | – | 36 | – | 59.3 | 91.7 | – | 270 | 55.7 | – | > 18000 | 360 | > 18000 | > 18000 | –
5 | CC(=O)O[C@H]1C(=O)[C@@]2(C)[C@H]([C@H](OC(=O)c3ccccc3)[C@]3(O)C[C@H](OC(=O)[C@H](O)[C@@H](NC(=O)c4ccccc4)c4ccccc4)C(C)=C1C3(C)C)[C@]1(OC(C)=O)CO[C@@H]1C[C@@H]2O [paclitaxel] | – | – | – | – | – | – | – | – | – | – | – | – | – | – | 2.1
6 | C/C(Cl)=C\C[C@@H](C/C=C\NC(=O)[C@@H](NC(=O)\C=C/C=C\C(C)=C\Cc1ccccc1)C(C)(C)C)OC(N)=O [Compound 34] | – | – | 443 | – | 572 | 1030 | – | 4430 | 701 | – | 2770 | 904 | > 18400 | > 18400 | –
7 | C/C(Cl)=C\C[C@@H](C/C=C\NC(=O)[C@@H](NC(=O)\C=C/C=C\C(C)=C\[C@H](C)c1ccccc1)C(C)(C)C)O[Si](C)(C)C(C)(C)C [Compound 37] | – | – | 3670 | 5900 | 4460 | 5260 | 9400 | 7010 | 2870 | 10800 | 5900 | – | – | – | –
8 | C=C/C=C\[C@H](C)[C@H](OC(N)=O)[C@@H](C)[C@H](O)[C@@H](C)C/C(C)=C\[C@H](C)[C@@H](O)[C@@H](C)/C=C\[C@@H](O)C[C@@H]1OC(=O)[C@H](C)[C@@H](O)[C@H]1C (single isomer, unassigned) [(+)-discodermolide] | – | – | – | – | – | – | – | – | – | – | – | – | – | – | 2.4
9 | C/C(Cl)=C\C[C@H](O)C/C=C\NC(=O)[C@@H](NC(=O)\C=C/C=C\C(C)=C\[C@H](C)c1ccccc1)C(C)(C)C [Compound 38] | – | – | 1090 | – | 1520 | 2140 | – | 4480 | 1810 | – | 4870 | 4680 | > 19500 | > 19500 | –
10 | C/C(Cl)=C\C[C@H](O)C/C=C\NC(=O)[C@@H](NC(=O)\C=C/C=C\C(C)=C\Cc1ccccc1)C(C)(C)C [Compound 33] | – | – | 1100 | – | 1820 | 3010 | – | 4810 | 1580 | – | 3410 | 3810 | 8010 | 7410 | –
11 | C/C(Cl)=C\C[C@@H](C/C=C\NC(=O)[C@@H](NC(=O)\C=C/C=C\C(C)=C\Cc1ccccc1)C(C)(C)C)O[Si](C)(C)C(C)(C)C [Compound 32] | – | – | 490 | 849 | 621 | 833 | 1500 | 1110 | 490 | 1060 | 686 | – | – | – | –
